Laboratory results from ChEMBL document CHEMBL4308854, “Novel indole-thiazolidinone conjugates: Design, synthesis and whole-cell phenotypic evaluation as a novel class of antimicrobial agents” (Eur J Med Chem, 2018).
≈ marks a conversion by molar mass, not a printed value. Calls of active or inactive are those of the source. The rule behind the calls is not given here.

Key:
[1] = test system: Mycobacterium tuberculosis; experiment: Antitubercular activity against Mycobacterium tuberculosis RCMB 010126 clinical isolate after 4 days by microplate alamar blue assay; format: functional; settings: for MIC: Mycobacterium tuberculosis, RCMB 010126, 96 h
Staphylococcus aureus [2] = experiment: Antibacterial activity against Staphylococcus aureus RCMB 010028 assessed as diameter of zone inhibition after 24 hrs by agar well diffusion assay; format: functional
Pseudomonas aeruginosa [3] = experiment: Antibacterial activity against Pseudomonas aeruginosa RCMB 010043 assessed as diameter of zone inhibition after 24 hrs by agar well diffusion assay; format: functional
Escherichia coli [4] = experiment: Antibacterial activity against Escherichia coli RCMB 010052 assessed as diameter of zone inhibition after 24 hrs by agar well diffusion assay; format: functional
Aspergillus fumigatus [5] = experiment: Antifungal activity against Aspergillus fumigatus RCMB 02568 assessed as diameter of zone inhibition after 48 hrs by agar well diffusion assay; format: functional
Candida albicans [6] = experiment: Antifungal activity against Candida albicans RCMB 05036 assessed as diameter of zone inhibition after 48 hrs by agar well diffusion assay; format: functional
Staphylococcus aureus [7] = experiment: Antibacterial activity against Staphylococcus aureus RCMB 010028 after 24 hrs by serial dilution method; format: functional; settings: RCMB 010028, 24 h
Pseudomonas aeruginosa [8] = experiment: Antibacterial activity against Pseudomonas aeruginosa RCMB 010043 after 24 hrs by serial dilution method; format: functional; settings: RCMB 010043, 24 h
Escherichia coli [9] = experiment: Antibacterial activity against Escherichia coli RCMB 010052 after 24 hrs by serial dilution method; format: functional; settings: RCMB 010052, 24 h
Aspergillus fumigatus [10] = experiment: Antifungal activity against Aspergillus fumigatus RCMB 02568 after 24 hrs by serial dilution method; format: functional; settings: RCMB 02568, 24 h
Candida albicans [11] = experiment: Antifungal activity against Candida albicans RCMB 05036 after 24 hrs by serial dilution method; format: functional; settings: RCMB 05036, 24 h
Escherichia coli [12] = experiment: Potency index, ratio of ciprofloxacin MIC to compound MIC for Escherichia coli RCMB 010052; format: functional
Pseudomonas aeruginosa [13] = experiment: Potency index, ratio of ciprofloxacin MIC to compound MIC for Pseudomonas aeruginosa RCMB 010043; format: functional
Mycolicibacterium aurum = experiment: Antitubercular activity against Mycobacterium aurum infected in mouse RAW264.7 cells measured after 48 hrs; format: functional
[14] = Cytotoxicity against mouse RAW264.7 cells; format: cell-based
[15] = Selectivity index, ratio of GI50 for mouse RAW264.7 cells to MIC for Mycobacterium aurum infected in mouse RAW264.7 cells; format: toxicity, cell-based; settings: read-out: Selectivity Index
[16] = Stability in mouse RAW264.7 cells measured after 48 hrs; format: ADME, cell-based; settings: raw264.7, 48 h
[17] = test system: Mycobacterium tuberculosis; experiment: Potency index, ratio of isoniazid MIC to compound MIC for antitubercular activity against Mycobacterium tuberculosis RCMB 010126 clinical isolate; format: functional
Staphylococcus aureus [18] = experiment: Potency index, ratio of ciprofloxacin MIC to compound MIC for Staphylococcus aureus RCMB 010028; format: functional

SMILES	inhibition (INH) [1] [%]	MIC [1] [mg/L]	diameter of the inhibition zone (DIZ) (Staphylococcus aureus [2])	diameter of the inhibition zone (DIZ) (Pseudomonas aeruginosa [3])	diameter of the inhibition zone (DIZ) (Escherichia coli [4])	diameter of the inhibition zone (DIZ) (Aspergillus fumigatus [5])	diameter of the inhibition zone (DIZ) (Candida albicans [6])	MIC (Staphylococcus aureus [7]) [mg/L]	MIC (Pseudomonas aeruginosa [8]) [mg/L]	MIC (Escherichia coli [9]) [mg/L]	MIC (Aspergillus fumigatus [10]) [mg/L]	MIC (Candida albicans [11]) [mg/L]	further results
CC(=O)c1sc(/N=C2\NC(=O)/C(=C3/C(=O)Nc4ccc(F)cc43)S2)nc1C	43.26	12.5 (≈ 31 µM)	18.6 mm	19.1 mm	20.6 mm	18.1 mm	19.1 mm	–	–	–	–	–	–
CC(=O)c1sc(/N=C2\NC(=O)/C(=C3/C(=O)N(Cc4ccccc4)c4ccccc43)S2)nc1C	58.34	1.56 (≈ 3.29 µM)	21.2 mm	20.3 mm	23.4 mm	21.7 mm	22.5 mm	1.95 (≈ 4.11 µM)	3.9 (≈ 8.22 µM)	0.98 (≈ 2.07 µM)	1.95 (≈ 4.11 µM)	0.98 (≈ 2.07 µM)	Ratio (Escherichia coli [12]): 2
CC(=O)c1sc(/N=C2\NC(=O)/C(=C3/C(=O)Nc4ccc(OC(F)(F)F)cc43)S2)nc1C	41.58	12.5 (≈ 26.6 µM)	14.3 mm	13.9 mm	14.2 mm	15.6 mm	16.2 mm	–	–	–	–	–	–
CCOC(=O)c1sc(/N=C2\NC(=O)/C(=C3/C(=O)Nc4ccc(Br)cc43)S2)nc1C	86.31	1.56 (≈ 3.16 µM)	20.1 mm	19.4 mm	21.1 mm	20.6 mm	21.3 mm	3.9 (≈ 7.9 µM)	3.9 (≈ 7.9 µM)	1.95 (≈ 3.95 µM)	3.9 (≈ 7.9 µM)	1.95 (≈ 3.95 µM)	–
NNC(=O)c1ccncc1 [ISONIAZID]	–	0.78 (≈ 5.69 µM)	–	–	–	–	–	–	–	–	–	–	–
CCOC(=O)c1sc(/N=C2\NC(=O)/C(=C/c3cn(Cc4ccccc4)c4ccccc34)S2)nc1C	–	–	inactive	inactive	inactive	inactive	inactive	–	–	–	–	–	inhibition [1]: inactive
CCOC(=O)c1sc(/N=C2\NC(=O)/C(=C3/C(=O)N(C)c4ccc(Cl)cc43)S2)nc1C	68.31	0.78 (≈ 1.68 µM)	21.4 mm	21.5 mm	22.3 mm	20.8 mm	21.3 mm	1.95 (≈ 4.21 µM)	1.95 (≈ 4.21 µM)	0.98 (≈ 2.12 µM)	3.9 (≈ 8.42 µM)	1.95 (≈ 4.21 µM)	Ratio (Pseudomonas aeruginosa [13]): 2; Ratio (Escherichia coli [12]): 2
CC(=O)c1sc(/N=C2\NC(=O)/C(=C3/C(=O)Nc4ccc(Br)cc43)S2)nc1C	43.21	12.5 (≈ 26.9 µM)	18.5 mm	18.6 mm	20.4 mm	17.6 mm	18.8 mm	–	–	–	–	–	–
COc1ccc2c(c1)/C(=C1/S/C(=N/c3nc(C)c(C(C)=O)s3)NC1=O)C(=O)N2	64.35	1.56 (≈ 3.76 µM)	21.7 mm	21.4 mm	22.4 mm	20.8 mm	21.3 mm	1.95 (≈ 4.7 µM)	1.95 (≈ 4.7 µM)	1.95 (≈ 4.7 µM)	1.95 (≈ 4.7 µM)	1.95 (≈ 4.7 µM)	Ratio (Pseudomonas aeruginosa [13]): 2
C[C@@H]1[C@H](O)[C@@H](C)/C=C/C=C/C=C/C=C/C=C/C=C/C=C/[C@H](O[C@@H]2O[C@H](C)[C@@H](O)[C@H](N)[C@@H]2O)C[C@@H]2O[C@](O)(C[C@@H](O)C[C@@H](O)[C@H](O)CC[C@@H](O)C[C@@H](O)CC(=O)O[C@H]1C)C[C@H](O)[C@H]2C(=O)O [AMPHOTERICIN B]	–	–	–	–	–	23.7 mm	25.4 mm	–	–	–	1.95 (≈ 2.11 µM)	0.98 (≈ 1.06 µM)	–
CCOC(=O)c1sc(/N=C2\NC(=O)/C(=C3/C(=O)Nc4ccc(F)cc43)S2)nc1C	62.15	1.56 (≈ 3.61 µM)	20.5 mm	20.2 mm	21.5 mm	21.3 mm	22.1 mm	3.9 (≈ 9.02 µM)	3.9 (≈ 9.02 µM)	1.95 (≈ 4.51 µM)	1.95 (≈ 4.51 µM)	1.95 (≈ 4.51 µM)	–
CC(=O)c1sc(/N=C2\NC(=O)/C(=C/c3cn(Cc4ccccc4)c4ccccc34)S2)nc1C	56.35	1.56 (≈ 3.3 µM)	20.6 mm	17.3 mm	20.3 mm	20.3 mm	16.2 mm	1.95 (≈ 4.13 µM)	15.6 (≈ 33.1 µM)	3.9 (≈ 8.25 µM)	3.9 (≈ 8.25 µM)	31.2 (≈ 66.1 µM)	–
CCOC(=O)c1sc(/N=C2\NC(=O)/C(=C/c3c[nH]c4ccccc34)S2)nc1C	46.35	6.24 (≈ 15.1 µM)	18.9 mm	18.5 mm	21.3 mm	20.3 mm	20.9 mm	3.9 (≈ 9.45 µM)	7.81 (≈ 18.9 µM)	1.95 (≈ 4.73 µM)	3.9 (≈ 9.45 µM)	1.95 (≈ 4.73 µM)	–
CC(=O)c1sc(/N=C2\NC(=O)/C(=C/c3cn(C)c4ccccc34)S2)nc1C	34.32	–	15.3 mm	14.2 mm	15.9 mm	16.2 mm	16.9 mm	–	–	–	–	–	–
CCOC(=O)c1sc(/N=C2\NC(=O)/C(=C/c3cn(C)c4ccccc34)S2)nc1C	–	–	inactive	inactive	inactive	inactive	inactive	–	–	–	–	–	inhibition [1]: inactive
CCOC(=O)c1sc(/N=C2\NC(=O)/C(=C3/C(=O)N(C)c4ccccc43)S2)nc1C	76.35	0.39 (≈ 0.91 µM)	21.8 mm	21.5 mm	21.5 mm	21.6 mm	22.4 mm	1.95 (≈ 4.55 µM)	1.95 (≈ 4.55 µM)	1.95 (≈ 4.55 µM)	1.95 (≈ 4.55 µM)	0.98 (≈ 2.29 µM)	MIC (Mycolicibacterium aurum): 200 mg/L (≈ 467 µM); GI50 [14]: 500 mg/L (≈ 1170 µM); selectivity ratio [15]: 2.5; Ratio (Pseudomonas aeruginosa [13]): 2; Stability [16]: Stable
CCOC(=O)c1sc(/N=C2\NC(=O)/C(=C3/C(=O)Nc4ccc(OC)cc43)S2)nc1C	84.35	0.39 (≈ 0.877 µM)	22.7 mm	22.1 mm	22.6 mm	22.1 mm	23.3 mm	0.98 (≈ 2.2 µM)	1.95 (≈ 4.39 µM)	0.98 (≈ 2.2 µM)	1.95 (≈ 4.39 µM)	0.98 (≈ 2.2 µM)	MIC (Mycolicibacterium aurum): > 200 mg/L; GI50 [14]: > 62.5 mg/L; selectivity ratio [15]: < 0.312; Ratio [17]: 2; Ratio (Staphylococcus aureus [18]): 2; Ratio (Pseudomonas aeruginosa [13]): 2; Ratio (Escherichia coli [12]): 2; Stability [16]: Stable
CC(=O)c1sc(/N=C2\NC(=O)/C(=C/c3c[nH]c4ccccc34)S2)nc1C	52.41	3.12 (≈ 8.16 µM)	18.9 mm	18.5 mm	21.3 mm	20.3 mm	20.9 mm	7.81 (≈ 20.4 µM)	7.81 (≈ 20.4 µM)	1.95 (≈ 5.1 µM)	3.9 (≈ 10.2 µM)	1.95 (≈ 5.1 µM)	–
CC(=O)c1sc(/N=C2\NC(=O)/C(=C3/C(=O)Nc4ccccc43)S2)nc1C	63.24	1.56 (≈ 4.06 µM)	20.3 mm	19.9 mm	22.8 mm	21.5 mm	22.7 mm	3.9 (≈ 10.1 µM)	3.9 (≈ 10.1 µM)	0.98 (≈ 2.55 µM)	1.95 (≈ 5.07 µM)	0.98 (≈ 2.55 µM)	Ratio (Escherichia coli [12]): 2
